# Assay results from ChEMBL document CHEMBL1142844, “A chemical strategy to promote helical peptide-protein interactions involved in apoptosis” (Bioorg Med Chem Lett, 2005).
# Target: Apoptosis regulator Bcl-2 (Homo sapiens, UniProt P10415)
# Test: Inhibition of BCL2 by fluorescence polarization based competitive binding assay; call rule not given here
# Chain of Apoptosis regulator Bcl-2 (P10415 whole entry): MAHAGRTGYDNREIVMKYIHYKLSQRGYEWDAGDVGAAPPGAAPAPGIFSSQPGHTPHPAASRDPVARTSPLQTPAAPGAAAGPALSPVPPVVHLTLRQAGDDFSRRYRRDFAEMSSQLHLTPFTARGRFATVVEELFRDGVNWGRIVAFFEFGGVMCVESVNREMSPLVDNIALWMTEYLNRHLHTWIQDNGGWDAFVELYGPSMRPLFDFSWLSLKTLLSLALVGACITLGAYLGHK
Compound,IC50 (read-out: IC50),IC50
CC[C@H](C)[C@H](NC(=O)[C@H](CC(N)=O)NC(=O)[C@H](CCCN=C(N)N)NC(=O)[C@@H](NC(=O)[C@@H](NC(=O)[C@H](CC(=O)O)NC(=O)[C@H](CCC(=O)O)NC(=O)[C@@H](N)CCC(N)=O)[C@@H](C)CC)[C@@H](C)CC)C(=O)N[C@@H](C)C(=O)N[C@@H](CCCN=C(N)N)C(=O)N[C@@H](Cc1c[nH]cn1)C(=O)N[C@@H](CC(C)C)C(=O)N[C@@H](C)C(=O)N[C@@H](CCC(N)=O)C(=O)N[C@H](C(=O)NCC(=O)N[C@@H](CC(=O)O)C(=O)N[C@@H](CO)C(=O)N[C@@H](CCSC)C(=O)N[C@@H](CC(=O)O)C(=O)N[C@@H](CCCN=C(N)N)C(=O)N[C@@H](CO)C(=O)N[C@H](C(=O)N1CCC[C@H]1C(=O)N1CCC[C@H]1C(=O)NCC(=O)O)[C@@H](C)CC)C(C)C,14.1 µM,
H-KKLSECLKRIGDELDS-OH,29.1 µM,
H-NLAAAQRYGRELRRMSDEFEGSFKGL-OH,0.41 µM,
H-NLWAAGQVGRQLAIIGDDINRSFKGL-OH,0.65 µM,
H-NLWAAKKLSECLKRIGDELDSSFKGL-OH,1.33 µM,
H-NLWAAQRYGRELRRMSDEFEG-OH,5.6 µM,
H-NLWAAQRYGRELRRMSDEFEGAFKGL-OH,0.8 µM,
H-NLWAAQRYGRELRRMSDEFEGSAKGL-OH,1.36 µM,
H-NLWAAQRYGRELRRMSDEFEGSFKGL-OH,0.3 µM,
H-NLWAARNIARHLAQVGDSMDRSFKGL-OH,1.56 µM,
H-NRWAAQRYGRELRRMSDEFEGSFKGL-OH,0.49 µM,
H-PSSTMGQVGRQLAIIGDDINRRYDSE-OH,3.03 µM,
H-QDASTKKLSECLKRIGDELDSNMELQ-OH,2.88 µM,
H-QRYGRELRRMSDEFEG-OH,,Not Active
H-QRYGRELRRMSDEFEGSFKGL-OH,17.5 µM,
H-RNIARHLAQVGDSMDR-OH,22.3 µM,
